We go through one compound from ChEMBL document CHEMBL5728999, “Sulfoximine glycosidase inhibitors” (2022).

In this experiment the target is T1, Protein O-GlcNAcase (Homo sapiens, UniProt O60502).
T1 sequence (O60502 whole entry): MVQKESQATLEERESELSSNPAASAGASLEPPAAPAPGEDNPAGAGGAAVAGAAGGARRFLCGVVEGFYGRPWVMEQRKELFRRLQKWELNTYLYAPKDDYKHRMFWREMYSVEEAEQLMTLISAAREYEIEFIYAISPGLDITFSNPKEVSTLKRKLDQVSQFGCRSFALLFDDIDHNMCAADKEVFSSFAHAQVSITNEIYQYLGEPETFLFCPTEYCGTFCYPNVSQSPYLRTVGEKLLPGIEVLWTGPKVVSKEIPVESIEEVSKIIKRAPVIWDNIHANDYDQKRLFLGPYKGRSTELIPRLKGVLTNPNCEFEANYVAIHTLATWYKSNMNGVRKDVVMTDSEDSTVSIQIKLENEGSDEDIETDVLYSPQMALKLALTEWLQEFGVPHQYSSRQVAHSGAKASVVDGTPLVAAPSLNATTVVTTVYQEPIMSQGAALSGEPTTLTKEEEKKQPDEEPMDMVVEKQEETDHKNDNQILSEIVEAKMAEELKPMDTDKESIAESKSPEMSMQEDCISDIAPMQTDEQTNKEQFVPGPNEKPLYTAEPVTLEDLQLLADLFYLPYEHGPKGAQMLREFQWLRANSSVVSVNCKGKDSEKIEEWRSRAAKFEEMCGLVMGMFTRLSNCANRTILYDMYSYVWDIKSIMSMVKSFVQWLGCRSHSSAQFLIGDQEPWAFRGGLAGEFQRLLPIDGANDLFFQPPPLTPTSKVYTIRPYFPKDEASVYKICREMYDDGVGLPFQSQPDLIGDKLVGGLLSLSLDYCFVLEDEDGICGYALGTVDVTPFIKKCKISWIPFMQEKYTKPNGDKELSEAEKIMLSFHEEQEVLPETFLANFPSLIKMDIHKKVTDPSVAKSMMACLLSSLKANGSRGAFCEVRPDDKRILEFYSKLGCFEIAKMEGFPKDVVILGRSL
In words: Human O-GlcNAcase enzyme inhibition assay: 5 μl of the appropriate concentration of a solution of inhibitor in McIlvaine's Buffer (pH 6.5) in 2% DMSO (for a dose response curve calculation) is added into each well of a 384-well plate (Greiner, 781900). Then, 20 nM of His-Tagged hOGA and 10 μM of FL-GlcNAc (Fluorescein mono-beta-D-(2-deoxy-2-N-acetyl) glucopyranoside; Marker Gene Technologies Inc, M1485) were added to the 384-well plate for a final volume of 20 μl. After incubation for 60 min at room temperature, the reaction was terminated by the addition of 10 μL of stop buffer (200 mM glycine, pH 10.75).

As usually defined, the IC50 is the concentration that inhibits the measured activity by half. Regarding `CC(c1ccc2c(c1)OCC2)N1CCN(c2ncnc3c2CS(=N)(=O)C3)CC1` (stereo unspecified), the half-inhibitory concentration (IC50) was less than 50 nM.
